“Also recorded” adds a separate entry of the source. Peptide text beside a SMILES is read from it.
Assays:
[1] = biological target: T1, GREM1 (Homo sapiens, UniProt O60565); test: MST binding of ACVR1C peptide to GREM1-His; conditions: GREM1 for ACVR1C peptide versus ACVR1C-ECD
T1 construct: His; purchased R&D 5190-GR
T1 sequence (O60565 25-184): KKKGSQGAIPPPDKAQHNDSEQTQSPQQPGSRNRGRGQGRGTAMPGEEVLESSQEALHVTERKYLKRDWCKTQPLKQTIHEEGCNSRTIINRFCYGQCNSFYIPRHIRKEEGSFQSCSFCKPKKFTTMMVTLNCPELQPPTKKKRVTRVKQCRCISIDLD
Procedure: MST was carried out on a Monolith NT.115 instrument (NanoTemper Technologies GmbH, MO-L011). To evaluate ACVR1C-ECD or ACVR1C peptide or ACVR1C-ECD-double mutant (E85A/T101A) binding to GREM1-His or ACTIVIN B-His, an increasing concentration of purified ACVR1C-ECD-Fc protein (0–27.5 µM) or ACVR1C peptide (0–2.3 µM) or ACVR1C-ECD-double mutant (0–27.5 µM) was incubated with 50 nM red-fluorescently labeled (NanoTemper Technologies GmbH, MO-L011) GREM1-His protein (R&D, 5190-GR) or ACTIVIN B-His protein (SinoBiological, 10814-H08H). Experiments were carried out in a PBS buffer pH 7.4 using premium capillaries (NanoTemper Technologies GmbH, MO-K025).

[2] = test system: GREM1–ACVR1C; test: Pull-down assay, blocking of GREM1–ACVR1C-ECD binding; design: species or system human; conditions: GREM1-His and ACVR1C-ECD-Fc, Coomassie Brilliant Blue
Procedure: Protein pull-down assay was performed using purified recombinant human His-tagged GREM1 protein and recombinant human ACVR1C-ECD and Fc chimera protein. Protein was enriched by Pierce Protein A magnetic beads (MCE, HY-K0202) or Ni Sepharose 6 Fast Flow (GE, 17531801) following the manufacturer’s instructions. Pulled-down proteins were detected by Coomassie Brilliant Blue staining.

[3] = test system: HCT116-luc cells; test: Spleen-to-liver metastasis model, HCT116-luc (pLV-GREM1) in NOG mice; format: in vivo, human cells in NOG mice; conditions: HCT116-luc (pLV-GREM1) injected in the spleen, ACVR1C peptide 10 mg/kg i.v. (tail vein) every other day from 48 h after cell injection, IVIS, n = 5 mice per group
Procedure: For spleen-to-liver metastasis model, 5 × 10^5 MC38-luc cells or MC38-luc (pLV-Grem1) cells were resuspended in 50 µL of PBS and injected into the spleen of GD mice or control mice (Grem1-CreER^T2/Rosa-LSL-DTA mice) (n = 5 mice in each group). 5 × 10^5 HCT116-luc cells carrying a pLV or pLV-GREM1 were resuspended in 50 µL of PBS and intrasplenically injected into NOG mice (n = 5 mice in each group). ACVR1C peptide was administered via tail vein injection at a dose of 10 mg/kg once every other day.

[4] = test system: GREM1; conditions: monoclonal antibodies; cited from earlier work
Source text: The advent of cancer genomics and precision medicine has enabled targeted therapies for advanced CRC, with agents against VEGF, EGFR, BRAF V600E, and HER2 showing efficacy in selected patient subsets. However, issues like limited bioavailability, resistance, and narrow indications restrict their broader use. Unlike mutation-specific targets, GREM1 is a widely expressed cytokine with sustained, context-dependent activity, making it a promising and potentially broadly applicable therapeutic target in CRC. Therapeutic targeting of GREM1 to date has focused largely on full neutralization str ...

## CC[C@H](C)[C@H](NC(=O)[C@H](CC(N)=O)NC(=O)[C@H](CC(N)=O)NC(=O)[C@H](CS)NC(=O)[C@H](Cc1ccccc1)NC(=O)[C@H](CC(=O)O)NC(=O)[C@@H](NC(=O)[C@H](Cc1ccccc1)NC(=O)[C@H](CS)NC(=O)[C@H](CS)NC(=O)[C@H](CCC(=O)O)NC(=O)[C@@H](N)[C@@H](C)O)[C@@H](C)O)C(=O)N[C@H](C(=O)N[C@@H](CC(C)C)C(=O)N[C@@H](Cc1c[nH]cn1)C(=O)N[C@@H](CC(C)C)C(=O)N1CCC[C@H]1C(=O)N[C@H](C(=O)N[C@@H](C)C(=O)O)[C@@H](C)O)[C@@H](C)O [ACVR1C peptide] (H-TECCFTDFCNNITLHLPTA-OH; N-terminus and C-terminus assumed)
[1]
  affinity compared with ACVR1C-ECD: comparable to that for the ACVR1C-ECD
[2]
  blocking of GREM1–ACVR1C binding: significantly blocked the GREM1–ACVR1C binding; also recorded: blocked the interaction between GREM1 and ACVR1C-ECD
[3]
  liver metastasis: effectively suppressed the increase in liver metastasis induced by tumor-specific GREM1 overexpression
[3]; listed as GREM1-blocking peptide
  liver metastasis: significantly impairs CRC metastasis in vivo

## Ginisortamab: fully humanized anti-GREM1 monoclonal antibody
[4]
  efficacy in preclinical models: have shown efficacy in preclinical models
